Data on one compound can be found in the supplement of paper PMC4862054.

For one experiment, the system named is CAL-85-1. Description: normalised viability (% of control), CellTiter-Blue; higher = more viable cells (about 100 = DMSO control). As to conditions: 10 nM; incubation time: 72 h. In short, it runs like this:
(§1)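 384-well plates were pre-loaded with compound in 5 µl medium before 20 µl of breast cancer cell suspension was seeded. Following 72 h incubation, 2.5 µl CellTiter-Blue reagent was added for 2 h at 37 °C. Fluorescence was read at 560/590 nm and plates were normalised to vehicle (100) and a positive kill control (0), checked by Z'-factor. Normalised viability is reported at a single listed concentration of the series.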
(In general: The colour change of resazurin is a common sign of viable cells or microbes.)

The subject of another experiment is MDA-MB-453. Described as above. As to conditions: 10 nM; incubation time: 72 h. Put shortly: as §1
A further experiment concerns Hs578T. Described as above. The settings on record: 100 nM; incubation time: 72 h. Put shortly: as §1
The test system of the next experiment is CAL-51. The experiment is described as above. As to conditions: 10 nM; incubation time: 72 h. In short, it runs like this:
as §1

The next experiment deals with HCC1143. The description is as above. As to conditions: 100 nM; incubation time: 72 h. Put shortly:
as §1

Experiment [1] has as its system HCC1937. Described as above. As to conditions: 100 nM; incubation time: 72 h. Put shortly:
as §1

The test system of another experiment is MFM-223. Described as above. The settings on record: 100 nM; incubation time: 72 h. Put shortly:
as §1

Another experiment has as its system HDQ-P1. The description is as above. The settings on record: 10 nM; incubation time: 72 h. Put shortly:
as §1

The subject of a further experiment is HCC1599. The description is as above. As to conditions: 100 nM; incubation time: 72 h. Put shortly: as §1
In experiment [2] the test system is BT-549. The experiment is described as above. The settings on record: 100 nM; incubation time: 72 h. In short, it runs like this: as §1
A further experiment deals with MDA-MB-436. Described as above. The settings on record: 100 nM; incubation time: 72 h. In short, it runs like this:
as §1

For a further experiment, the system named is DU-4475. Described as above. As to conditions: 10 nM; incubation time: 72 h. Put shortly: as §1
Experiment [3] deals with MDA-MB-231. Described as above. The settings on record: 100 nM; incubation time: 72 h. Put shortly:
as §1

Another experiment relates to MDA-MB-468. The description is as above. The settings on record: 100 nM; incubation time: 72 h. Put shortly:
as §1

The test system of the next experiment is BT-474. The experiment is described as above. As to conditions: 100 nM; incubation time: 72 h. Put shortly:
as §1

For another experiment, the system named is CAL-120. Described as above. As to conditions: 100 nM; incubation time: 72 h. In short, it runs like this:
as §1

For the next experiment, the system named is CAL-148. The experiment is described as above. The settings on record: 10 nM; incubation time: 72 h. Put shortly: as §1
Experiment [4] has as its system SK-BR-3. Described as above. The settings on record: 100 nM; incubation time: 72 h. In short, it runs like this:
as §1

The subject of experiment [5] is HCC1937. Description: drug sensitivity score (DSS), CellTiter-Glo (DSS (AUC-based score)); higher = stronger drug effect (viability inhibition or cytotoxicity); extreme values may be limits of the assay. As to conditions: incubation time: 72 h. In short, it runs like this: (§2)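 The drug sensitivity score reflects the area under a fitted dose-response curve. To obtain it, breast cancer cells in 20 µl suspension were seeded into 384-well plates containing compound at 5 concentrations, 10-fold apart over a compound-specific 10,000-fold range, and incubated 72 h. CellTox Green fluorescence (485/520 nm) was read first and CellTiter-Glo luminescence second, after 10 min at room temperature. Each plate was normalised to 0.1 % DMSO and a positive kill control.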
On the technique in general: ATP-based viability assays read luminescence as a measure of living cells.

In experiment [6] the test system is BT-549. The experiment is described as above. As to conditions: incubation time: 72 h. In short, it runs like this:
as §2

For experiment [7], the system named is MDA-MB-231. The description is as above. The settings on record: incubation time: 72 h. Put shortly: as §2
Experiment [8] relates to SK-BR-3. The description is as above. As to conditions: incubation time: 72 h. Put shortly: as §2

Turning to `O=c1[nH]c(=O)n([C@H]2C[C@H](O)[C@@H](CO)O2)cc1F` [Floxuridine], the normalised viability with CAL-85-1 worked out at 93.1%; in the experiment with MDA-MB-453 it was 98.5%; in the experiment on Hs578T, 85.8%; in the experiment on CAL-51 it was 91.8%; in the experiment with HCC1143 it was 101%; in the experiment with HCC1937 [1] it was 84.5%. In addition, the normalised viability amounted to 92.6% with MFM-223; 107% with HDQ-P1; 97.2% in the experiment on HCC1599; 93.4% in the experiment with BT-549 [2]; 72.6% in the experiment with MDA-MB-436; 114% in the experiment on DU-4475. Moreover, the normalised viability is 97.4% in the experiment with MDA-MB-231 [3]; 51.9% in the experiment with MDA-MB-468; 117% in the experiment on BT-474; 66.2% in the experiment on CAL-120; 99.8% in the experiment with CAL-148; 53% with SK-BR-3 [4]. For the same compound, the drug sensitivity score is 10.3 in the experiment with HCC1937 [5], 1.93 in the experiment on BT-549 [6], 4.12 with MDA-MB-231 [7] and 12 with SK-BR-3 [8].
